Data: PubChem BioAssay AID1963985 (Molecular Pharmacology Branch, DTP, NCI, 2024)

System: 252836-082-R-J2-PDC tumor spheroids, viability
Experiment: Anticancer human tumor 252836-082-R-J2-PDC patient-derived head and neck squamous cell carcinoma cell line growth inhibition [PI3K]
Conditions: spheroids with HUVEC and MSC; for IC50: curve of first compound; for viability, T/C: stronger effect = lower value
Method in brief: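 High-throughput combination screen: PI3K inhibitors crossed with targeted small molecules on complex spheroids of tumor cells, HUVEC and MSCs at 37 degrees C, 5% CO2. Top concentration was at or near clinical Cmax (otherwise 10 microM), with half-log decrements.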

[1] = second compound 0.0316 µM, first compound 0.0316 µM
[2] = second compound 0.0316 µM, first compound 0.1 µM
[3] = second compound 0.0316 µM, first compound 0.316 µM
[4] = second compound 0.0316 µM, first compound 1 µM
[5] = second compound 0.0316 µM, first compound 3.16 µM
[6] = second compound 0.0316 µM, first compound 10 µM
[7] = second compound 0.1 µM, first compound 0.0316 µM
[8] = second compound 0.1 µM, first compound 0.1 µM
[9] = second compound 0.1 µM, first compound 0.316 µM
[10] = second compound 0.1 µM, first compound 1 µM
[11] = second compound 0.1 µM, first compound 3.16 µM
[12] = second compound 0.1 µM, first compound 10 µM
[13] = second compound 0.316 µM, first compound 0.0316 µM
[14] = second compound 0.316 µM, first compound 0.1 µM
[15] = second compound 0.316 µM, first compound 0.316 µM
[16] = second compound 0.316 µM, first compound 1 µM
[17] = second compound 0.316 µM, first compound 3.16 µM
[18] = second compound 0.316 µM, first compound 10 µM
[19] = second compound 1 µM, first compound 0.0316 µM
[20] = second compound 1 µM, first compound 0.1 µM
[21] = second compound 1 µM, first compound 0.316 µM
[22] = second compound 1 µM, first compound 1 µM
[23] = second compound 1 µM, first compound 3.16 µM
[24] = second compound 1 µM, first compound 10 µM
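Further: spheroids exposed to agents for seven days before readout.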
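Wherever viability, T/C is given: percent of vehicle DMSO control viability so 100% = untreated growth.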

With `CC(C)NCC(C(=O)N1CCN(c2ncnc3c2C(C)CC3O)CC1)c1ccc(Cl)cc1` (centres undefined) + Cc1nc(NC(=O)N2CCCC2C(N)=O)sc1-c1ccnc(C(C)(C)C(F)(F)F)c1 the IC50 (second compound 0.0316 µM) was 977 nM, the IC50 (second compound 0.1 µM) was 784 nM and the IC50 (second compound 0.316 µM) was 834 nM. The IC50 (second compound 1 µM) was 461 nM, the IC50 (second compound 3.16 µM) was under 31.6 nM and the IC50 (second compound 10 µM) was under 31.6 nM. For the same compound, the viability, T/C [1] was 87.3%, the viability, T/C [2] was 73.3% and the viability, T/C [3] was 76.3%. The viability, T/C [4] was 47.9%, the viability, T/C [5] was 30.2% and the viability, T/C [6] was 22.1%. It also gave a viability, T/C [7] of 87.8%, a viability, T/C [8] of 73.7% and a viability, T/C [9] of 64%. For the same compound, the viability, T/C [10] was 47.7%, the viability, T/C [11] was 29.5% and the viability, T/C [12] was 19.2%. For the same compound, the viability, T/C [13] was 70.3%, the viability, T/C [14] was 67.3% and the viability, T/C [15] was 68.9%. It also gave a viability, T/C [16] of 44.5%, a viability, T/C [17] of 31.7% and a viability, T/C [18] of 21%. For the same compound, the viability, T/C [19] was 55.6%, the viability, T/C [20] was 50.3% and the viability, T/C [21] was 60.1%. It also gave a viability, T/C [22] of 40.2%, a viability, T/C [23] of 29.5% and a viability, T/C [24] of 19.1%. It also gave a viability, T/C (second compound 3.16 µM, first compound 0.0316 µM) of 41.3%, a viability, T/C (second compound 3.16 µM, first compound 0.1 µM) of 48.1% and a viability, T/C (second compound 3.16 µM, first compound 0.316 µM) of 43%. The viability, T/C (second compound 3.16 µM, first compound 1 µM) was 36.5%, the viability, T/C (second compound 3.16 µM, first compound 3.16 µM) was 25.8% and the viability, T/C (second compound 3.16 µM, first compound 10 µM) was 17.2%. It also gave a viability, T/C (second compound 10 µM, first compound 0.0316 µM) of 32.8%, a viability, T/C (second compound 10 µM, first compound 0.1 µM) of 36.1% and a viability, T/C (second compound 10 µM, first compound 0.316 µM) of 27.8%. For the same compound, the viability, T/C (second compound 10 µM, first compound 1 µM) was 21.6%, the viability, T/C (second compound 10 µM, first compound 3.16 µM) was 19.8% and the viability, T/C (second compound 10 µM, first compound 10 µM) was 10.1%.
Work on `Cn1nccc1Nc1nccc(-c2ccn(C(CO)c3ccc(Cl)c(F)c3)c(=O)c2)n1` (centres undefined) + CC(Nc1ccc2c(c1)OCCn1cc(N3C(=O)OCC3C(F)F)nc1-2)C(N)=O yielded an IC50 (second compound 0.00316 µM) of over 10000 nM, an IC50 (second compound 0.01 µM) of over 10000 nM and an IC50 (second compound 0.0316 µM) of over 10000 nM. The IC50 (second compound 0.1 µM) was 5840 nM, the IC50 (second compound 0.316 µM) was 1070 nM and the IC50 (second compound 1 µM) was under 31.6 nM. It also gave a viability, T/C (second compound 0.00316 µM, first compound 0.0316 µM) of 80.8%, a viability, T/C (second compound 0.00316 µM, first compound 0.1 µM) of 90% and a viability, T/C (second compound 0.00316 µM, first compound 0.316 µM) of 92.5%. It also gave a viability, T/C (second compound 0.00316 µM, first compound 1 µM) of 85.4%, a viability, T/C (second compound 0.00316 µM, first compound 3.16 µM) of 72.5% and a viability, T/C (second compound 0.00316 µM, first compound 10 µM) of 61.9%. It also gave a viability, T/C (second compound 0.01 µM, first compound 0.0316 µM) of 85.5%, a viability, T/C (second compound 0.01 µM, first compound 0.1 µM) of 78.7% and a viability, T/C (second compound 0.01 µM, first compound 0.316 µM) of 81%. For the same compound, the viability, T/C (second compound 0.01 µM, first compound 1 µM) was 89.7%, the viability, T/C (second compound 0.01 µM, first compound 3.16 µM) was 82.5% and the viability, T/C (second compound 0.01 µM, first compound 10 µM) was 58.1%. For the same compound, the viability, T/C [1] was 69.4%, the viability, T/C [2] was 74.2% and the viability, T/C [3] was 69.8%. It also gave a viability, T/C [4] of 75.8%, a viability, T/C [5] of 83.8% and a viability, T/C [6] of 44.6%. The viability, T/C [7] was 70.4%, the viability, T/C [8] was 58% and the viability, T/C [9] was 64.1%. The viability, T/C [10] was 64.6%, the viability, T/C [11] was 60.9% and the viability, T/C [12] was 40.4%. The viability, T/C [13] was 49.5%, the viability, T/C [14] was 50.3% and the viability, T/C [15] was 55.5%. The viability, T/C [16] was 50.1%, the viability, T/C [17] was 40.7% and the viability, T/C [18] was 28.6%. For the same compound, the viability, T/C [19] was 39.1%, the viability, T/C [20] was 43% and the viability, T/C [21] was 38.7%. For the same compound, the viability, T/C [22] was 38.6%, the viability, T/C [23] was 31.9% and the viability, T/C [24] was 22.6%.
